Results from patent US5125099A, “Obtaining heteropolysaccharide-producing microorganism and the microorganism agrobacterium radiobacter NCIB 40018” (Shell Internationale Research Maatschappij B.V., priority 1988, dated 1992).
“Also recorded” adds a separate entry of the source. Read-outs that look alike come from different tables or passages of the source.

Legend:
[1] = tested on: A. radiobacter strain AR9; experiment: Effect of glucose analogues on [14C]glucose uptake by strain AR9 grown under glucose limitation; type: cell-based, Agrobacterium radiobacter; conditions: for activity at 10000 µM: Agrobacterium radiobacter, AR9, pH 7, unlabelled sugars 10 mM, [14C]glucose 250M, glucose-limited culture D = 0.045 h^-1, control rate 63 nmol min^-1 (mg dry wt)^-1
Experimental: (§1) Measurement of glucose uptake. […] Assays were carried out in an open-topped Rank oxygen electrode vessel containing 1 ml 20 mM HEPES/KOH buffer, pH 7.0, and 1 mg dry wt cells. The contents of the vessel were maintained at 30° C. and mixed continuously using a magnetic stirrer. […] Samples (50 ul) of the reaction mixture were withdrawn at 15 s intervals and the cells were collected on nitrocellulose filters of 0.45 uM pore size (2.5 cm dia.; Sartorius) by means of a manifold connected to a vacuum line. The filters were washed immediately using 3 ml 20 mM HEPES, pH 7.0, dried under an infra-red lamp and then immersed in 3 ml of Fisofluor 3 scintillant (Fisons Ltd.).

GBP1 [2] = experiment: Effect of unlabelled glucose analogues on binding of [14C]glucose to GBP1, equilibrium dialysis; set-up: species or system Agrobacterium radiobacter; conditions: for [14C]glucose bound GBP1: 0.5 nmol pure protein, 3 nmol [14C]glucose plus 120 nmol unlabelled analogue, 30 h, 4° C.; for Effect on binding of glucose to GBP1 (in words): competition with [14C]glucose in vitro
Experimental: (§2) The capacity of glucose analogues to reduce the extent of binding of D-[U-^14 C]glucose to pure proteins was determined by modifying the assay procedure as follows. One chamber of each cell contained 0.5 nmol pure protein in 0.3 ml bis-Tris, pH 6.8, and the other chamber was loaded with 0.3 ml of buffer containing 3 nmol D-[U-^14 C]glucose [85 mCi mmol^-1 (3.2 GBq mmol )] plus 120 nmol of an unlabelled glucose analogue. The quantity of [^14 C]glucose that bound to the proteins in the presence and absence of unlabelled glucose analogues was determined after 30 h incubation.

GBP2 [3] = experiment: Effect of unlabelled glucose analogues on binding of [14C]glucose to GBP2, equilibrium dialysis; set-up: species or system Agrobacterium radiobacter; conditions: for [14C]glucose bound GBP2: 0.5 nmol pure protein, 3 nmol [14C]glucose plus 120 nmol unlabelled analogue, 30 h, 4° C.; for Effect on binding of glucose to GBP2 (in words): competition with [14C]glucose in vitro
Experimental: as §2

[4] = tested on: A. radiobacter strain AR18; experiment: Effect of glucose analogues on [14C]glucose uptake by strain AR18 grown under glucose limitation; type: cell-based, Agrobacterium radiobacter; conditions: for activity at 10000 µM: Agrobacterium radiobacter, AR18, pH 7, unlabelled sugars 10 mM, [14C]glucose 250M, glucose-limited culture D = 0.045 h^-1, control rate 72 nmol min^-1 (mg dry wt)^-1
Experimental: as §1

[5] = tested on: whole cells of A. radiobacter; experiment: [14C]glucose uptake by whole cells grown under glucose limitation; type: cell-based, Agrobacterium radiobacter NCIB 11883; conditions: for Effect on rate of [14C]glucose uptake by whole cells (in words): unlabelled analogue at 40:1 molar excess, glucose-limited cells; for Glucose uptake rate after pre-incubation with respiratory substrate (in words): 10 mM, pre-incubated before addition of [14C]glucose
Experimental: Organism and growth conditions. Agrobacterium radiobacter NCIB 11883 was grown at 30° C. in continuous culture (D=0.045 h^-1) under glucose limitation using a chemically defined medium (Linton et al., 1987) supplemented with glucose (4 gl^-1), ammonium sulfate (3 gl^-1) and nitrilotriacetic acid (0.142 gl^-1). The organism was grown in an LH Series 500 chemostat of 2 l working volume at a steady-state biomass density of 2.1 g dry wt 1^-1.
Measurement of glucose uptake. Rates of glucose uptake were determined by measuring the incorporation of D-[U-^14 C]glucose into whole cells over a period of 60 s. Assays were carried out in an open-topped Rank oxygen electrode vessel containing 1 ml 20 mM HEPES/KOH buffer, pH 7.0, and 1 mg dry wt cells. The contents of the vessel were maintained at 30° C. and mixed continuously using a magnetic stirrer. Assays were started by adding D-[U-^14 C]glucose [2 mCi mmol^-1 (74 MBq mmol^-1; 0.5 uCi (18.5 KBl)] to give a final concentration of 250 uM. Samples (50 ul) of the reaction mixture were withdrawn at 15 s intervals and the cells were collected on nitrocellulose filters of 0.45 uM pore size (2.5 cm dia.; Sartorius) by means of a manifold connected to a vacuum line. The filters were washed immediately using 3 ml 20 mM HEPES, pH 7.0, dried under an infra-red lamp and then immersed in 3 ml of Fisofluor 3 scintillant (Fisons Ltd.). The extent of incorporation of [^14 C]glucose into the cells was determined by counting the radioactivity on the filters using a Hewlett Packard Tri-Carb liquid scintillation counter (80-85% efficiency).
In order to measure glucose uptake rates at low concentrations of substrate (1-5 uM) the cell density was reduced to 0.01 mg ml^-1, the specific activity of the [^14 C]glucose was increased to 84 mCi mmol^-1 (3.2 Gbq mmol^-1) and the rate of incorporation of ^14 C-label into cells was measured over a period of 35 s.
The substrate specificity of the transport system was investigated by determining the extent to which unlabelled glucose analogues (10 mM) reduced the rate of uptake of [^14 C]glucose (250 uM). Cell suspensions were incubated with analogues for 5 s prior to addition of [^14 C]glucose.

[6] = tested on: A. radiobacter strain AR18; experiment: [14C]glucose uptake by strain AR18 grown under ammonia limitation; type: cell-based; conditions: Agrobacterium radiobacter, AR18, pH 7; ammonia-limited growth, forty-fold molar excess over [14C]glucose; read-out: Reduction of rate of glucose uptake by strain AR18
Experimental: (§4) Measurement of glucose uptake. Rates of glucose uptake were determined by measuring the incorporation of D-[U-^14 C]glucose into whole cells over a period of 60 s. Assays were carried out in an open-topped Rank oxygen electrode vessel containing 1 ml 20 mM HEPES/KOH buffer, pH 7.0, and 1 mg dry wt cells. The contents of the vessel were maintained at 30° C. and mixed continuously using a magnetic stirrer. Assays were started by adding D-[U-^14 C]glucose [2 mCi mmol^-1 (74 MBq mmol^-1 ; 0.5 uCi (18.5 KBl)] to give a final concentration of 250 uM. Samples (50 ul) of the reaction mixture were withdrawn at 15 s intervals and the cells were collected on nitrocellulose filters of 0.45 uM pore size (2.5 cm dia.; Sartorius) by means of a manifold connected to a vacuum line. The filters were washed immediately using 3 ml 20 mM HEPES, pH 7.0, dried under an infra-red lamp and then immersed in 3 ml of Fisofluor 3 scintillant (Fisons Ltd.). The extent of incorporation of [^14 C]glucose into the cells was determined by counting the radioactivity on the filters using a Hewlett Packard Tri-Carb liquid scintillation counter (80-85% efficiency). Glucose uptake rates were measured in triplicate for each batch of cells and the standard errors never exceeded 10% of the mean values. […]

[7] = tested on: A. radiobacter strain AR9; experiment: [14C]glucose uptake by strain AR9 grown under ammonia limitation; type: cell-based; conditions: Agrobacterium radiobacter, AR9, pH 7; ammonia-limited growth, forty-fold molar excess over [14C]glucose; read-out: Reduction of rate of glucose uptake by strain AR9
Experimental: as §4

[8] = tested on: third protein (Mr 30500), BP3; experiment: Binding of [14C]glucose to the third periplasmic protein (BP3), equilibrium dialysis; set-up: species or system Agrobacterium radiobacter
Experimental: (§3) Determination of binding constants using equilibrium dialysis. This was carried out at 4° C. using an eight-cell rotating module (Hoefer Scientific Instruments, San Fransisco, Calif., U.S.A.). Each cell was divided into two chambers of 0.5 ml volume using a dialysis membrane (Mr cut-off=6-8000). Pure protein (0.5 nmol) was added to one chamber of each cell in 0.3 ml bis-Tris, pH 6.8. Each of the opposing chambers was loaded with 0.3 ml bis-Tris (0.3 ml) containing D-[U-^14 C]glucose [270 mCi mmol^-1 (10 GBq mmol^-1)], the concentration of which was varied over an appropriate range. The module was rotated at 10 rev min^-1 for 30 h (by which time equilibrium had been attained) and samples (50 ul) were taken in triplicate from each chamber and counted in 3 ml Fisofluor 2 (Fisons Ltd.). The data were analyzed according to the method of Scatchard (1949).

[9] = tested on: whole cells of A. radiobacter; experiment: Capacity of whole cells to accumulate [14C]glucose; type: cell-based, Agrobacterium radiobacter NCIB 11883
Experimental: The capacity of A. radiobacter to accumulate glucose was determined by incubating cell suspensions (1 mg dry wt ml^-1) with D-[U-^14 C]glucose [84 mCi mmol^-1 (3.2 Gbq mmol^-1); 20M initial concentration). Samples (100 ul) of the suspension were withdrawn 10s after adding the glucose and the cells were collected on nitrocellulose filters (0.45 um pore size) using vacuum filtration. The filters were washed immediately using 3 ml buffer and immersed in 20 ml boiling water. Aqueous extracts prepared from four filters were pooled, lyophilized and the residue dissolved in 2 ml water. The glucose content of the cells was determined using liquid scintillation counting following separation of [^14 C]glucose from other labelled metabolites present in the extracts using paper chromatography. Samples of the filtrate plus washings were also counted in order to determine the extracellular concentration of glucose at the time of sampling.

GBP2 [10] = experiment: Binding of [14C]glucose to pure GBP2, equilibrium dialysis, Scatchard analysis; set-up: species or system Agrobacterium radiobacter
Experimental: as §3

GBP1 [11] = experiment: Binding of [14C]glucose to pure GBP1, equilibrium dialysis, Scatchard analysis; set-up: species or system Agrobacterium radiobacter
Experimental: as §3

[12] = glucose-limited culture, unlabelled sugar 10 mM

| Structure (SMILES) | activity at 10000 µM [1] | [14C]glucose bound GBP1 (GBP1 [2]) | Effect on binding of glucose to GBP1 (in words) (GBP1 [2]) | [14C]glucose bound GBP2 (GBP2 [3]) | Effect on binding of glucose to GBP2 (in words) (GBP2 [3]) | activity at 10000 µM [4] | further results |
| --- | --- | --- | --- | --- | --- | --- | --- |
| OC1O[C@H](CCl)[C@@H](O)[C@H](O)[C@H]1O (stereo partly drawn) [6-chloro-6-deoxy-D-glucose] | 33% | 0 % control value | variably decreased; also recorded: significantly reduced | 60 % control value | variably decreased; also recorded: significantly reduced | 8% |  |
| CO[C@H]1O[C@H](CO)[C@@H](O)[C@H](O)[C@H]1O [alpha-1-O-methyl-D-glucose] | 99% | 99 % control value | did not affect | 104 % control value | did not affect | 111% | Effect on rate of [14C]glucose uptake by whole cells (in words) [5]: none of these unlabelled analogues appreciably reduced; Effect on rate of [14C]glucose uptake by whole cells (in words) ([5]; listed as Alpha-1-O-methyl-D-glucose): failed to reduce significantly |
| N#CC(C#N)=NNc1ccc(OC(F)(F)F)cc1 [FCCP, carbonyl cyanide p-trifluoromethoxyphenylhydrazone] |  |  |  |  |  |  | Inhibition of glucose transport ([5]; at 20 M, added 10 s before glucose): approximately 95% |
| C[C@@H](O)[C@H](O)[C@H](O)[C@@H](O)C=O [D-fucose] | 68% | 31 % control value | only effective with GBP1 | 99 % control value | only effective with GBP1 | 18% |  |
| OCC(O)CO [glycerol] |  |  |  |  |  |  | Glucose uptake rate after pre-incubation with respiratory substrate (in words) [5]: did not increase |
| C[C@@H](O)[C@@H](O)[C@H](O)[C@@H](O)C=O [6-deoxy-D-glucose] | 11% | 51 % control value | variably decreased; also recorded: significantly reduced | 0 % control value | variably decreased; also recorded: significantly reduced | 27% |  |
| CO[C@H]1[C@H](O)[C@@H](CO)OC(O)[C@@H]1O (stereo partly drawn) [3-O-methyl-D-glucose] | 99% | 100 % control value | did not affect | 103 % control value | did not affect | 111% | Effect on rate of [14C]glucose uptake by whole cells (in words) [5]: none of these unlabelled analogues appreciably reduced; also recorded: failed to reduce significantly |
| O=C[C@H](O)[C@@H](O)[C@@H](O)[C@H](O)CO [D-galactose] | 75% | 2 % control value |  | 99 % control value |  | 8% | inhibition at 10000 µM [6]: ~95%; Effect on binding of glucose to GBP1 (in words) (GBP1 [2]; listed as D-Galactose): only effective with GBP1; Effect on binding of glucose to GBP2 (in words) (GBP2 [3]; listed as D-Galactose): only effective with GBP1; inhibition at 10000 µM [7]: ~50% |
| O=C[C@H](O)[C@@H](O)[C@H](O)[C@H](O)CO [D-glucose] | 4% | 4 % control value |  | 4 % control value |  | 4% | Binding of D-glucose to the third protein (Mr 30500) (in words) [8]: no binding ability; Km ([5]; [14C]glucose varied over the range 1 M-1 mM, whole cells): < 1 µM; Accumulation ratio ([glucose]in/[glucose]out) [9]: > 2000; Accumulation ratio ([glucose]in/[glucose]out) ([9]; 10 s incubation, assuming an intracellular volume of 1-3 ul mg dry wt^-1): 2000-6000; Kd (GBP2 [10]; as printed in the summary, read-out: KD of D-glucose for GBP2 (summary)): 70 nM; Kd (GBP2 [10]; equilibrium dialysis, 4° C., pH 6.8, read-out: KD of glucose for GBP2): 70 nM; Kd (GBP1 [11]; as printed in the summary, read-out: KD of D-glucose for GBP1 (summary)): 230 nM; Kd (GBP1 [11]; equilibrium dialysis, 4° C., pH 6.8, read-out: KD of glucose for GBP1): 230 nM |
| CCO [ethanol] |  |  |  |  |  |  | Glucose uptake rate after pre-incubation with respiratory substrate (in words) [5]: did not increase |
| O=CC[C@@H](O)[C@H](O)[C@H](O)CO [2-deoxy-D-glucose] | 71% | 96 % control value | did not affect | 98 % control value | did not affect | 93% | Effect on rate of [14C]glucose uptake by whole cells (in words) [5]: none of these unlabelled analogues appreciably reduced; also recorded: failed to reduce significantly; Effect on rate of glucose uptake by strain AR9 (in words) [1, 12]: reduced the rate of glucose uptake to a relatively small extent; Effect on binding of glucose to GBP1 (in words) (GBP1 [2]; listed as 2-Deoxy-D-glucose): had no effect; Effect on binding of glucose to GBP2 (in words) (GBP2 [3]; listed as 2-Deoxy-D-glucose): had no effect; Effect on rate of glucose uptake by strain AR18 (in words) [4, 12]: reduced the rate of glucose uptake to a relatively small extent |
| O=C[C@H](O)[C@@H](O)[C@H](O)CO [D-xylose] |  | 72 % control value | significantly reduced | 2 % control value | significantly reduced | 64% |  |
